Each structure is given as a SMILES string.

Usually melting point stands for the temperature of the solid-liquid transition. `CCOc1cc2c(cc1C(F)(F)F)NC(=O)CC(c1cccc(-c3ccnc(C4CC4)c3)c1)=N2` [Example 348, 4-[3-(2-Cyclopropyl-pyridin-4-yl)-phenyl]-7-ethoxy-8-trifluoromethyl-1,3-dihydro-benzo[b][1,4]diazepin-2-one]: the melting point stood at 244 °C.

`O=C1CC(c2cccc(-c3ccnc(C4CC4)c3)c2)=Nc2cc(OCC(F)(F)F)c(C(F)(F)F)cc2N1` [Example 349, 4-[3-(2-Cyclopropyl-pyridin-4-yl)-phenyl]-7-(2,2,2-trifluoro-ethoxy)-8-trifluoromethyl-1,3-dihydro-benzo[b][1,4]diazepin-2-one] came in with a melting point of 218 °C. Next, `Cc1cc(-c2cccc(C3=Nc4cc(C5CC5)c(C(F)(F)F)cc4NC(=O)C3)c2)ccn1` [Example 350, 7-Cyclopropyl-4-[3-(2-methyl-pyridin-4-yl)-phenyl]-8-trifluoromethyl-1,3-dihydro-benzo[b][1,4]diazepin-2-one]: 205 to 211 °C.

`Cc1cc2c(cc1C(F)(F)F)NC(=O)CC(c1cccc(-c3ccnc(C4CCCC4)c3)c1)=N2` [Example 351, 4-[3-(2-Cyclopentyl-pyridin-4-yl)-phenyl]-7-methyl-8-trifluoromethyl-1,3-dihydro-benzo[b][1,4]diazepin-2-one] gave a melting point of 218 to 219 °C. Next, `O=C1CC(c2cccc(-c3ccnc(C4CCCC4)c3)c2)=Nc2ccc(C(F)(F)F)cc2N1` [Example 352, 4-[3-(2-Cyclopentyl-pyridin-4-yl)-phenyl]-8-trifluoromethyl-1,3-dihydro-benzo[b][1,4]diazepin-2-one]: 165 to 167 °C; `CCOc1cc2c(cc1C(F)(F)F)NC(=O)CC(c1cccc(-c3ccnc(C4CCCC4)c3)c1)=N2` [Example 353, 4-[3-(2-Cyclopentyl-pyridin-4-yl)-phenyl]-7-ethoxy-8-trifluoromethyl-1,3-dihydro-benzo[b][1,4]diazepin-2-one]: 192 to 193 °C; `O=C1CC(c2cccc(-c3ccnc(C4CCCC4)c3)c2)=Nc2cc(OCC(F)(F)F)c(C(F)(F)F)cc2N1` [Example 354, 4-[3-(2-Cyclopentyl-pyridin-4-yl)-phenyl]-7-(2,2,2-trifluoro-ethoxy)-8-trifluoromethyl-1,3-dihydro-benzo[b][1,4]diazepin-2-one]: 147 to 148 °C.

On to `Cc1cc2c(cc1C(F)(F)F)NC(=O)CC(c1cccc(-c3ccnc(CN(C)CC(C)C)c3)c1)=N2` [Example 360, 4-(3-{2-[(Isobutyl-methyl-amino)-methyl]-pyridin-4-yl}-phenyl)-7-methyl-8-trifluoromethyl-1,3-dihydro-benzo[b][1,4]diazepin-2-one], for which the melting point was found to be 188 °C. The result for `COCc1cc(-c2cccc(C3=Nc4cc(C)c(C(F)(F)F)cc4NC(=O)C3)c2)ccn1` [Example 361, 4-[3-(2-Methoxymethyl-pyridin-4-yl)-phenyl]-7-methyl-8-trifluoromethyl-1,3-dihydro-benzo[b][1,4]diazepin-2-one] reads 225 °C. Next, `Cc1cc(-c2cccc(C3=Nc4cc(N(C)CC(C)C)c(C(F)(F)F)cc4NC(=O)C3)c2)ccn1` [Example 362, 7-(Isobutyl-methyl-amino)-4-[3-(2-methyl-pyridin-4-yl)-phenyl]-8-trifluoromethyl-1,3-dihydro-benzo[b][1,4]diazepin-2-one]: 189 °C.

Regarding `Cc1cc(-c2cccc(C3=Nc4cc(N(C)C(C)C)c(C(F)(F)F)cc4NC(=O)C3)c2)ccn1` [Example 363, 7-(Isopropyl-methyl-amino)-4-[3-(2-methyl-pyridin-4-yl)-phenyl]-8-trifluoromethyl-1,3-dihydro-benzo[b][1,4]diazepin-2-one], the melting point turned out to be 207 °C.

With `Cc1cc(-c2cccc(C3=Nc4cc(N5CCCC5)c(C(F)(F)F)cc4NC(=O)C3)c2)ccn1` [Example 365, 4-[3-(2-Methyl-pyridin-4-yl)-phenyl]-7-pyrrolidin-1-yl-8-trifluoromethyl-1,3-dihydro-benzo[b][1,4]diazepin-2-one], the melting point was found to be 223 °C. Next, `CC(C)CN(C)c1cc2c(cc1C(F)(F)F)NC(=O)CC(c1cccc(-c3ccnc(CO)c3)c1)=N2` [Example 366, 4-[3-(2-Hydroxymethyl-pyridin-4-yl)-phenyl]-7-(isobutyl-methyl-amino)-8-trifluoromethyl-1,3-dihydro-benzo[b][1,4]diazepin-2-one]: 130 °C; `CC(C)N(C)c1cc2c(cc1Cl)NC(=O)CC(c1cccc(-c3ccnc(CO)c3)c1)=N2` [Example 367, 8-Chloro-4-[3-(2-hydroxymethyl-pyridin-4-yl)-phenyl]-7-(isopropyl-methyl-amino)-1,3-dihydro-benzo[b][1,4]diazepin-2-one]: 143 °C; `CC(C)CN(C)c1cc2c(cc1Cl)NC(=O)CC(c1cccc(-c3ccnc(CO)c3)c1)=N2` [Example 368, 8-Chloro-4-[3-(2-hydroxymethyl-pyridin-4-yl)-phenyl]-7-(isobutyl-methyl-amino)-1,3-dihydro-benzo[b][1,4]diazepin-2-one]: 161 °C.

As for `CCCN(C)c1cc2c(cc1C(F)(F)F)NC(=O)CC(c1cccc(-c3ccnc(CO)c3)c1)=N2` [Example 369, 4-[3-(2-Hydroxymethyl-pyridin-4-yl)-phenyl]-7-(methyl-propyl-amino)-8-trifluoromethyl-1,3-dihydro-benzo[b][1,4]diazepin-2-one], the melting point came out at 97 °C. The result for `CC(C)N(C)c1cc2c(cc1C(F)(F)F)NC(=O)CC(c1cccc(-c3ccnc(CO)c3)c1)=N2` [Example 370, 4-[3-(2-Hydroxymethyl-pyridin-4-yl)-phenyl]-7-(isopropyl-methyl-amino)-8-trifluoromethyl-1,3-dihydro-benzo[b][1,4]diazepin-2-one] reads 124 °C. Next, `CN(C)c1cc2c(cc1C(F)(F)F)NC(=O)CC(c1cccc(-c3ccnc(CO)c3)c1)=N2` [Example 371, 7-Dimethylamino-4-[3-(2-hydroxymethyl-pyridin-4-yl)-phenyl]-8-trifluoromethyl-1,3-dihydro-benzo[b][1,4]diazepin-2-one]: 223 °C; `Cc1cc2c(cc1Cl)NC(=O)CC(c1cccc(-c3ccnc(CNC4CC4)c3)c1)=N2` [Example 378, 8-Chloro-4-[3-(2-cyclopropylaminomethyl-pyridin-4-yl)-phenyl]-7-methyl-1,3-dihydro-benzo[b][1,4]diazepin-2-one]: 171 °C. As for `O=C1CC(c2cccc(-c3ccnc(CNC4CC4)c3)c2)=Nc2cc(OCC(F)(F)F)c(C(F)(F)F)cc2N1` [Example 379, 4-[3-(2-Cyclopropylaminomethyl-pyridin-4-yl)-phenyl]-7-(2,2,2-trifluoro-ethoxy)-8-trifluoromethyl-1,3-dihydro-benzo[b][1,4]diazepin-2-one], the melting point stood at 150 °C. As to `O=C1CC(c2cccc(-c3ccnc(CN4CCCC4)c3)c2)=Nc2cc(OCC(F)(F)F)c(C(F)(F)F)cc2N1` [Example 380, 4-[3-(2-Pyrrolidin-1-ylmethyl-pyridin-4-yl)-phenyl]-7-(2,2,2-trifluoro-ethoxy)-8-trifluoromethyl-1,3-dihydro-benzo[b][1,4]diazepin-2-one], the melting point stood at 182 °C. The result for `O=C1CC(c2cccc(-c3ccnc(CN4CCC4)c3)c2)=Nc2cc(OCC(F)(F)F)c(C(F)(F)F)cc2N1` [Example 381, 4-[3-(2-Azetidin-1-ylmethyl-pyridin-4-yl)-phenyl]-7-(2,2,2-trifluoro-ethoxy)-8-trifluoromethyl-1,3-dihydro-benzo[b][1,4]diazepin-2-one] reads 190 °C; that for `CCCN(C)Cc1cc(-c2cccc(C3=Nc4cc(OCC(F)(F)F)c(C(F)(F)F)cc4NC(=O)C3)c2)ccn1` [Example 382, 4-(3-{2-[(Methyl-propyl-amino)-methyl]-pyridin-4-yl}-phenyl)-7-(2,2,2-trifluoro-ethoxy)-8-trifluoromethyl-1,3-dihydro-benzo[b][1,4]diazepin-2-one], 155 °C; that for `Cc1cc(-c2cccc(C3=Nc4cc(N5CCOCC5)c(C(F)(F)F)cc4NC(=O)C3)c2)cc(C)n1` [Example 384, 4-[3-(2,6-Dimethyl-pyridin-4-yl)-phenyl]-7-morpholin-4-yl-8-trifluoromethyl-1,3-dihydro-benzo[b][1,4]diazepin-2-one], 251 to 252 °C. Next, `CCOc1cc2c(cc1C(F)(F)F)NC(=O)CC(c1cccc(-c3ccnc(N4CCOCC4)c3)c1)=N2` [Example 385, 7-Ethoxy-4-[3-(2-morpholin-4-yl-pyridin-4-yl)-phenyl]-8-trifluoromethyl-1,3-dihydro-benzo[b][1,4]diazepin-2-one]: 199 to 200 °C; `O=C1CC(c2cccc(-c3ccnc(N4CCOCC4)c3)c2)=Nc2cc(OCC(F)(F)F)c(C(F)(F)F)cc2N1` [Example 386, 4-[3-(2-Morpholin-4-yl-pyridin-4-yl)-phenyl]-7-(2,2,2-trifluoro-ethoxy)-8-trifluoromethyl-1,3-dihydro-benzo[b][1,4]diazepin-2-one]: 189 to 190 °C. Next, `O=C1CC(c2cccc(-c3ccnc(N4CCCC4)c3)c2)=Nc2ccc(C(F)(F)F)cc2N1` [Example 388, 4-[3-(2-Pyrrolidin-1-yl-pyridin-4-yl)-phenyl]-8-trifluoromethyl-1,3-dihydro-benzo[b][1,4]diazepin-2-one]: 224 °C; `Cc1cc2c(cc1C(F)(F)F)NC(=O)CC(c1cccc(-c3ccnc(N4CCCC4)c3)c1)=N2` [Example 389, 7-Methyl-4-[3-(2-pyrrolidin-1-yl-pyridin-4-yl)-phenyl]-8-trifluoromethyl-1,3-dihydro-benzo[b][1,4]diazepin-2-one]: 190 °C.

Take `CCOc1cc2c(cc1C(F)(F)F)NC(=O)CC(c1cccc(-c3ccnc(N4CCCC4)c3)c1)=N2` [Example 390, 7-Ethoxy-4-[3-(2-pyrrolidin-1-yl-pyridin-4-yl)-phenyl]-8-trifluoromethyl-1,3-dihydro-benzo[b][1,4]diazepin-2-one]: the melting point turned out to be 215 °C. The result for `CCOc1cc2c(cc1C(F)(F)F)NC(=O)CC(c1ccnc(-c3cccnc3)c1)=N2` [Example 393, 4-[2,3′]Bipyridinyl-4-yl-7-ethoxy-8-trifluoromethyl-1,3-dihydro-benzo[b][1,4]diazepin-2-one] reads 249 °C.

The values are drawn from patent US6949542B2, “Dihydro-benzo[b][1,4]diazepin-2-one derivatives” (Hoffman-La Roche Inc., priority 2002, dated 2005).
